As a reminder, the IC50 is the concentration that gives 50% inhibition. High values mean a need for much substance, low ones inhibition by little substance.

Experimental findings from US9340590B2 (priority 2011, dated 2016) are described below.

What all share (test): cell-based
The target in assay [1] is T1, hNav1.7 (Homo sapiens, UniProt Q15858).
The next assay has as its target hNav1.5 (Homo sapiens, UniProt Q14524). Conditions: for pIC50: IonWorks Quattro, clamped to −110 mV, depolarized to −10 mV, 5 min after compound, n=2, read-out: IWQ Use Nav1.5. (The patch-clamp technique gives a direct electrical read-out from membranes.)
In the next assay the target is hNav1.3 (Homo sapiens, UniProt Q9NY46). Conditions: IonWorks Quattro, read-out: IWQ Use Nav1.3.
Assay [2] addresses T1, hNav1.7. Format: cell-based. Conditions: IonWorks Quattro; clamped to −110 mV, depolarized to −10 mV, 5 min after compound; n=2; read-out: IWQ Use Nav1.7.
Where [3] appears, read: clamped to −110 mV, depolarized to −10 mV, 5 min after compound, n=2.

Molecules are shown by their SMILES. pIC50: −log10 of the molar value. Like-named read-outs stand apart in the source and are kept apart here. Positions of bridges follow the written chain, without caps; N, C: chain ends. Non-standard residues stand in square brackets, D forms with d. Residues, ends and D or L forms follow the SMILES beside them. Lys(Me2) = CN(C)CCCC[C@H](N)C(=O)O

hNav1.5, sequence (Q14524 whole entry, looked up): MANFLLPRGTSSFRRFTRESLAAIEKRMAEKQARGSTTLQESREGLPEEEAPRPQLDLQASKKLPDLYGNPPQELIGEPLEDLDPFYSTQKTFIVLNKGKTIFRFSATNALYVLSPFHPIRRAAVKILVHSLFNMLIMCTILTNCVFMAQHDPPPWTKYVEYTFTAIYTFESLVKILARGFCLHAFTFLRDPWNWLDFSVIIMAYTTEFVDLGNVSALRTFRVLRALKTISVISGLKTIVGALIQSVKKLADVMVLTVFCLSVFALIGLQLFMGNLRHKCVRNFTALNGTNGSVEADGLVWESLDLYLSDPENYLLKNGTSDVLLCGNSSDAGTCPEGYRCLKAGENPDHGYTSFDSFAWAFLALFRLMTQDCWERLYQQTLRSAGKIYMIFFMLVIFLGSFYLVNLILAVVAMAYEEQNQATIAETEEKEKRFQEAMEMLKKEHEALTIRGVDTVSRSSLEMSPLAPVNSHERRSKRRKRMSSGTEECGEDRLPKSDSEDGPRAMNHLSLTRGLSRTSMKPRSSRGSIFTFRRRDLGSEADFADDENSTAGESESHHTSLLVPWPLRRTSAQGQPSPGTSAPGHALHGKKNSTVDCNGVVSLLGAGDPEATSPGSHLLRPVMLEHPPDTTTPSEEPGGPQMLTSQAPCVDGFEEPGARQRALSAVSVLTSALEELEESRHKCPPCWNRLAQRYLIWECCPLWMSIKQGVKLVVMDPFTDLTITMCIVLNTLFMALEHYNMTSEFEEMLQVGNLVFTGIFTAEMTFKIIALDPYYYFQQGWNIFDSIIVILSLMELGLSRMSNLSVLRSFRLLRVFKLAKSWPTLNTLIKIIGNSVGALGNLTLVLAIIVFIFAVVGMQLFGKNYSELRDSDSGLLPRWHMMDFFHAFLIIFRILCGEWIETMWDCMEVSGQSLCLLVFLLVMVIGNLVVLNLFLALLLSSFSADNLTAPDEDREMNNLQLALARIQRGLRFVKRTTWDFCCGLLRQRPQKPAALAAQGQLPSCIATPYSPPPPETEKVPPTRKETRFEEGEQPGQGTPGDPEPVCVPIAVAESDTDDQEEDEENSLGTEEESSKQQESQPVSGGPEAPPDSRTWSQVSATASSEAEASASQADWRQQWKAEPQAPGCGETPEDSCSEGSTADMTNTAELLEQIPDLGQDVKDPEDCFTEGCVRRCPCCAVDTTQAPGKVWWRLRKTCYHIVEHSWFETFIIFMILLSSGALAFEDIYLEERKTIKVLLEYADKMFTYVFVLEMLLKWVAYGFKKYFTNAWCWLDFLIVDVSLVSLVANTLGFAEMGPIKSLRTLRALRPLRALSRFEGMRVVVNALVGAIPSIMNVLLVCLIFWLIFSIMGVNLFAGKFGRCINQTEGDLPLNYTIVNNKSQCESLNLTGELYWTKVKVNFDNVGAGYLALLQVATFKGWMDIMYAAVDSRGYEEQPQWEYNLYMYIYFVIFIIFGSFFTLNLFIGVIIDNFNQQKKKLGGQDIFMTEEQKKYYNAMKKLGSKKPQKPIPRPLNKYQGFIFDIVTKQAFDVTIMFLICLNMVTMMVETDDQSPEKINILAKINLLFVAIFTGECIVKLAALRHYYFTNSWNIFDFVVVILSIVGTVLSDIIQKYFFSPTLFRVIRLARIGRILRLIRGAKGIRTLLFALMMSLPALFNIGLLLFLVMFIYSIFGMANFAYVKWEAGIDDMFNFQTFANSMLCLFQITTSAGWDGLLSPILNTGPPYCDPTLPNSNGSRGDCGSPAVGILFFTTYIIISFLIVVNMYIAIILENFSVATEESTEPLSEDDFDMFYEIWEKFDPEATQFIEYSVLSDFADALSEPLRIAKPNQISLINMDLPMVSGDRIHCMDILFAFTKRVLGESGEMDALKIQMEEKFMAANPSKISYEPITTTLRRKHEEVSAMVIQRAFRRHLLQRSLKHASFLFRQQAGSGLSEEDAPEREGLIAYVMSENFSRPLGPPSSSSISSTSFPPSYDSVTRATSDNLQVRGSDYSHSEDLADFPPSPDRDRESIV
T1 sequence (Q15858 whole entry, looked up): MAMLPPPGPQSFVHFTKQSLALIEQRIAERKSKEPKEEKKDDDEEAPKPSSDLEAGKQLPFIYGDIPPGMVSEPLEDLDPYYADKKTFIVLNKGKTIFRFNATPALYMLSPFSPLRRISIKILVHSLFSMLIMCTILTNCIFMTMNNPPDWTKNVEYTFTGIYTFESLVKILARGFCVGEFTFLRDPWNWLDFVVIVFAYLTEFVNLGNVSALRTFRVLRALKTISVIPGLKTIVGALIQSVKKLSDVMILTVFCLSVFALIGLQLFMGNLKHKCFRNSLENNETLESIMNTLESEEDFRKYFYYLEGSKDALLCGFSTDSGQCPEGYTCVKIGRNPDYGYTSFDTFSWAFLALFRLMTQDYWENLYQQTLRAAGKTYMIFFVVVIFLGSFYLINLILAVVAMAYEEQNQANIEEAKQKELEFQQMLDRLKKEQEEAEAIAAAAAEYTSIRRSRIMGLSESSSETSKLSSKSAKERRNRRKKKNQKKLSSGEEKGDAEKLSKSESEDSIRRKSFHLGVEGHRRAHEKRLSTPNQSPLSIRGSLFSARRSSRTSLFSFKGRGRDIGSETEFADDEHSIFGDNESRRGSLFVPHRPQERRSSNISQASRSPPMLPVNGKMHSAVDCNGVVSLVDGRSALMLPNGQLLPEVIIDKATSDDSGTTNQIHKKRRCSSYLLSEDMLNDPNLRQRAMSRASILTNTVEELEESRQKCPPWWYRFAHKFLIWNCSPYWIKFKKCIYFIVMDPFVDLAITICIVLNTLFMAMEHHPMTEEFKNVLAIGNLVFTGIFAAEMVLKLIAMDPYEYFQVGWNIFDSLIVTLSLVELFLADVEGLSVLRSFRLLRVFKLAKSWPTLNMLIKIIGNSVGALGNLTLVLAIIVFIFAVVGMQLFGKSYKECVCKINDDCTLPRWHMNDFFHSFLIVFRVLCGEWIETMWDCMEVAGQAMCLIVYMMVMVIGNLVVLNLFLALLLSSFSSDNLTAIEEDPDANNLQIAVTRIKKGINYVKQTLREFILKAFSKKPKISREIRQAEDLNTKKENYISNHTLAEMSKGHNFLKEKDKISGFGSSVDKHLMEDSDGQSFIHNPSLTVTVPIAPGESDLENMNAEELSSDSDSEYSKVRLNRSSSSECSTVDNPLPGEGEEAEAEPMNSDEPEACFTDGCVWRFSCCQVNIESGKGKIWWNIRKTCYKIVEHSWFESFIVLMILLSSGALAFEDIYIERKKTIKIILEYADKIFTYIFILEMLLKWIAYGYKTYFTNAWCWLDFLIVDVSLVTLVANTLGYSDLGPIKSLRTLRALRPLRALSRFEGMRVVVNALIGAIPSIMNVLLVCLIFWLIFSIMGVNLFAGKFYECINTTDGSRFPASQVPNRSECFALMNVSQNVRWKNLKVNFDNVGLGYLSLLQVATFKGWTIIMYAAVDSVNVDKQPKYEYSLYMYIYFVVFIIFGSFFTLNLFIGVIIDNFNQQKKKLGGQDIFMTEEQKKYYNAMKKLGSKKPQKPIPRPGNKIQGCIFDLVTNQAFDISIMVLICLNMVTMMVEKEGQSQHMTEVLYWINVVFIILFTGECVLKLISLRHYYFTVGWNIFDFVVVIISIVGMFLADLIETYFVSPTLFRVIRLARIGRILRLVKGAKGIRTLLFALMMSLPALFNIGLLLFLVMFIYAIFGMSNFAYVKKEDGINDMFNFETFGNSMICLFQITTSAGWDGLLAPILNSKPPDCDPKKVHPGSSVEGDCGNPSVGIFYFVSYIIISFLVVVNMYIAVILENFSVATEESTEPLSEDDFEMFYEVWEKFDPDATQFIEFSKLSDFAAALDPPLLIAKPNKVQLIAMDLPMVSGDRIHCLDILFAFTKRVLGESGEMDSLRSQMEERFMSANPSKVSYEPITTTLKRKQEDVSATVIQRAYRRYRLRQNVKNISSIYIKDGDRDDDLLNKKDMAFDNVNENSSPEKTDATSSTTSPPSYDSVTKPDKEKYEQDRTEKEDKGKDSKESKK

`CC[C@H](C)[C@@H]1NC(=O)[C@@H]2CSSC[C@@H]3NC(=O)[C@H](C(C)C)NC(=O)[C@H](CC(C)C)NC(=O)[C@H](CC(N)=O)NC(=O)[C@@H]4CCCN4C(=O)[C@H](CCCNC(=N)N)NC(=O)[C@H](CSSC[C@H](NC(=O)[C@@H](N)CC(=O)O)C(=O)N[C@@H](CC(C)C)C(=O)NCC(=O)N[C@@H](Cc4ccccc4)C(=O)N[C@@H](CCSC)C(=O)N[C@@H](CCCNC(=N)N)C(=O)N[C@@H](CCCCN)C(=O)N2)NC(=O)[C@H](CSSC[C@@H](C(=O)N[C@@H](CCCCN)C(=O)N[C@@H](Cc2ccc(O)cc2)C(=O)N[C@H](C(=O)N[C@@H](Cc2ccccc2)C(N)=O)C(C)C)NC(=O)[C@H](Cc2c[nH]c4ccccc24)NC(=O)[C@H](CCC(=O)O)NC(=O)[C@H](Cc2cnc[nH]2)NC(=O)[C@H]([C@@H](C)O)NC(=O)[C@H](CCCNC(=N)N)NC(=O)[C@H](CO)NC3=O)NC(=O)[C@H](CCCCN)NC(=O)[C@H](CC(=O)O)NC(=O)[C@H](CC(N)=O)NC(=O)[C@H](CC(=O)O)NC(=O)[C@@H]2CCCN2C1=O` [SEQ ID NO: 153, [Glu28]GpTx-1(1-34)] (H-DCLGFMRKCIPDNDKCCRPNLVCSRTHEWCKYVF-NH2; disulfide 2-17, 9-23, 16-30): the pIC50 was 7.30 at hNav1.7 [1] (Nav1.7 Use IC50) and 6.10 on hNav1.3 (Table 23, use, […]). At hNav1.5 (IWQ Use Nav1.5 (μM)), this compound returned an IC50 of 14.1 µM.

Regarding `CC[C@H](C)[C@@H]1NC(=O)[C@@H]2CSSC[C@@H]3NC(=O)[C@H](C(C)C)NC(=O)[C@H](CC(C)C)NC(=O)[C@H](CC(N)=O)NC(=O)[C@@H]4CCCN4C(=O)[C@H](CCCNC(=N)N)NC(=O)[C@H](CSSC[C@H](NC(=O)[C@@H](N)CC(=O)O)C(=O)N[C@@H](CC(C)C)C(=O)NCC(=O)N[C@@H](C(C)C)C(=O)N[C@@H](CCSC)C(=O)N[C@@H](CCCNC(=N)N)C(=O)N[C@@H](CCCCN)C(=O)N2)NC(=O)[C@H](CSSC[C@@H](C(=O)N[C@@H](CCCCN)C(=O)N[C@@H](Cc2ccc(O)cc2)C(=O)N[C@H](C(=O)N[C@@H](Cc2ccccc2)C(N)=O)C(C)C)NC(=O)[C@H](Cc2c[nH]c4ccccc24)NC(=O)[C@H](CCCCN)NC(=O)[C@H](Cc2cnc[nH]2)NC(=O)[C@H]([C@@H](C)O)NC(=O)[C@H](CCCNC(=N)N)NC(=O)[C@H](CO)NC3=O)NC(=O)[C@H](CCCCN)NC(=O)[C@H](CC(=O)O)NC(=O)[C@H](CC(N)=O)NC(=O)[C@H](CC(=O)O)NC(=O)[C@@H]2CCCN2C1=O` [SEQ ID NO: 272] (H-DCLGVMRKCIPDNDKCCRPNLVCSRTHKWCKYVF-NH2; disulfide 2-17, 9-23, 16-30), the pIC50 was 6.15 at hNav1.7 [2], 7.74 at hNav1.7 [1] (Nav1.7 Use IC50), 4.88 at hNav1.5 and 5.99 on hNav1.3 (setting [3]).

`CC[C@H](C)[C@@H]1NC(=O)CNC(=O)[C@H](CC(C)C)NC(=O)[C@@H](NC(=O)[C@@H](N)CC(=O)O)CSSC[C@@H]2NC(=O)[C@@H]3CSSC[C@@H](C(=O)N[C@@H](CCCCN)C(=O)N[C@@H](Cc4ccc(O)cc4)C(=O)N[C@H](C(=O)N[C@@H](Cc4ccccc4)C(N)=O)C(C)C)NC(=O)[C@H](Cc4c[nH]c5ccccc45)NC(=O)[C@H](CCCCN)NC(=O)[C@H](Cc4cnc[nH]4)NC(=O)[C@H]([C@@H](C)O)NC(=O)[C@H](CCCNC(=N)N)NC(=O)[C@H](CO)NC(=O)[C@H](CSSC[C@H](NC(=O)[C@H](CCCCN)NC(=O)[C@H](CCCNC(=N)N)NC(=O)[C@H](CCSC)NC1=O)C(=O)N[C@@H]([C@@H](C)CC)C(=O)N1CCC[C@H]1C(=O)N[C@@H](CC(=O)O)C(=O)N[C@@H](CC(N)=O)C(=O)N[C@@H](CC(=O)O)C(=O)N[C@@H](CCCCN)C(=O)N3)NC(=O)[C@H](C(C)C)NC(=O)[C@H](CC(C)C)NC(=O)[C@H](CC(N)=O)NC(=O)[C@@H]1CCCN1C(=O)[C@H](CCCNC(=N)N)NC2=O` [SEQ ID NO: 88] (H-DCLGIMRKCIPDNDKCCRPNLVCSRTHKWCKYVF-NH2; disulfide 2-17, 9-23, 16-30): the pIC50 was 6.44 on hNav1.7 [2], 8.70 against hNav1.7 [1] (Nav1.7 Use IC50), 5.18 on hNav1.5 and 6.21 on hNav1.3 (setting [3]).

Take `CC[C@H](C)[C@@H]1NC(=O)[C@@H]2CSSC[C@@H]3NC(=O)[C@H](C(C)C)NC(=O)[C@H](CC(C)C)NC(=O)[C@H](CC(N)=O)NC(=O)[C@@H]4CCCN4C(=O)[C@H](CCCNC(=N)N)NC(=O)[C@H](CSSC[C@H](NC(=O)[C@@H](N)CC(=O)O)C(=O)N[C@@H](CC(C)C)C(=O)N[C@@H](CCCCN)C(=O)N[C@@H](Cc4ccccc4)C(=O)N[C@@H](CCSC)C(=O)N[C@@H](CCCNC(=N)N)C(=O)N[C@@H](CCCCN)C(=O)N2)NC(=O)[C@H](CSSC[C@@H](C(=O)N[C@@H](CCCCN)C(=O)N[C@@H](Cc2ccc(O)cc2)C(=O)N[C@H](C(=O)N[C@@H](Cc2ccccc2)C(N)=O)C(C)C)NC(=O)[C@H](Cc2c[nH]c4ccccc24)NC(=O)[C@H](CCCCN)NC(=O)[C@H](Cc2c[nH]cn2)NC(=O)[C@H]([C@@H](C)O)NC(=O)[C@H](CCCNC(=N)N)NC(=O)[C@H](CO)NC3=O)NC(=O)[C@H](CCCCN)NC(=O)[C@H](CC(=O)O)NC(=O)[C@H](CC(N)=O)NC(=O)[C@H](CC(=O)O)NC(=O)[C@@H]2CCCN2C1=O` [SEQ ID NO: 39] (H-DCLKFMRKCIPDNDKCCRPNLVCSRTHKWCKYVF-NH2; disulfide 2-17, 9-23, 16-30): on hNav1.7 [1] (read-out: Nav1.7 Use IC50), the pIC50 was 8.22.

For the compound `CC[C@H](C)[C@@H]1NC(=O)[C@@H]2CSSC[C@@H]3NC(=O)[C@H](C(C)C)NC(=O)[C@H](CC(C)C)NC(=O)[C@H](CC(N)=O)NC(=O)[C@@H]4CCCN4C(=O)[C@H](CCCCN(C)C)NC(=O)[C@H](CSSC[C@H](NC(=O)[C@@H](N)CC(=O)O)C(=O)N[C@@H](CC(C)C)C(=O)NCC(=O)N[C@@H](Cc4ccccc4)C(=O)N[C@@H](CCSC)C(=O)N[C@@H](CCCNC(=N)N)C(=O)N[C@@H](CCCCN)C(=O)N2)NC(=O)[C@H](CSSC[C@@H](C(=O)N[C@@H](CCCCN)C(=O)N[C@@H](Cc2ccc(O)cc2)C(=O)N[C@H](C(=O)N[C@@H](Cc2ccccc2)C(N)=O)C(C)C)NC(=O)[C@H](Cc2c[nH]c4ccccc24)NC(=O)[C@H](CCCCN)NC(=O)[C@H](Cc2c[nH]cn2)NC(=O)[C@H]([C@@H](C)O)NC(=O)[C@H](CCCNC(=N)N)NC(=O)[C@H](CO)NC3=O)NC(=O)[C@H](CCCCN)NC(=O)[C@H](CC(=O)O)NC(=O)[C@H](CC(N)=O)NC(=O)[C@H](CC(=O)O)NC(=O)[C@@H]2CCCN2C1=O` [[K(Me2)18]GpTx-1(1-34)] (H-DCLGFMRKCIPDNDKCC[Lys(Me2)]PNLVCSRTHKWCKYVF-NH2; disulfide 2-17, 9-23, 16-30), on hNav1.7 [1] (read-out: Nav1.7 Use IC50), the pIC50 is 8.30.

For `CC[C@H](C)[C@@H]1NC(=O)[C@@H]2CSSC[C@@H]3NC(=O)[C@H](C(C)C)NC(=O)[C@H](CC(C)C)NC(=O)[C@H](CC(N)=O)NC(=O)[C@@H]4CCCN4C(=O)[C@H](CCCNC(=N)N)NC(=O)[C@H](CSSC[C@H](NC(=O)[C@@H](N)CC(=O)O)C(=O)N[C@@H](CC(C)C)C(=O)NCC(=O)N[C@@H](CCSC)C(=O)N[C@@H](CCSC)C(=O)N[C@@H](CCCNC(=N)N)C(=O)N[C@@H](CCCCN)C(=O)N2)NC(=O)[C@H](CSSC[C@@H](C(=O)N[C@@H](CCCCN)C(=O)N[C@@H](Cc2ccc(O)cc2)C(=O)N[C@H](C(=O)N[C@@H](Cc2ccccc2)C(N)=O)C(C)C)NC(=O)[C@H](Cc2c[nH]c4ccccc24)NC(=O)[C@H](CCCCN)NC(=O)[C@H](Cc2c[nH]cn2)NC(=O)[C@H]([C@@H](C)O)NC(=O)[C@H](CCCNC(=N)N)NC(=O)[C@H](CO)NC3=O)NC(=O)[C@H](CCCCN)NC(=O)[C@H](CC(=O)O)NC(=O)[C@H](CC(N)=O)NC(=O)[C@H](CC(=O)O)NC(=O)[C@@H]2CCCN2C1=O` [SEQ ID NO: 268] (H-DCLGMMRKCIPDNDKCCRPNLVCSRTHKWCKYVF-NH2; disulfide 2-17, 9-23, 16-30), on hNav1.7 [1] (read-out: Nav1.7 Use IC50), the pIC50 is 8.70.

Take `CCCC[C@@H]1NC(=O)[C@H](C)NC(=O)CNC(=O)[C@H](CC(C)C)NC(=O)[C@@H](NC(=O)[C@@H](N)CC(=O)O)CSSC[C@@H]2NC(=O)[C@@H]3CSSC[C@@H](C(=O)N[C@@H](CCCCN)C(=O)N[C@@H](Cc4ccc(O)cc4)C(=O)N[C@H](C(=O)N[C@@H](Cc4ccccc4)C(N)=O)C(C)C)NC(=O)[C@H](Cc4c[nH]c5ccccc45)NC(=O)[C@H](CCCCN)NC(=O)[C@H](Cc4c[nH]cn4)NC(=O)[C@H]([C@@H](C)O)NC(=O)[C@H](CCCNC(=N)N)NC(=O)[C@H](CO)NC(=O)[C@H](CSSC[C@H](NC(=O)[C@H](CCCCN)NC(=O)[C@H](CCCNC(=N)N)NC1=O)C(=O)N[C@@H]([C@@H](C)CC)C(=O)N1CCC[C@H]1C(=O)N[C@@H](CC(=O)O)C(=O)N[C@@H](CC(N)=O)C(=O)N[C@@H](CC(=O)O)C(=O)N[C@@H](CCCCN)C(=O)N3)NC(=O)[C@H](C(C)C)NC(=O)[C@H](CC(C)C)NC(=O)[C@H](CC(N)=O)NC(=O)[C@@H]1CCCN1C(=O)[C@H](CCCNC(=N)N)NC2=O` [[Ala5;Nle6]GpTx-1(1-34)]: the pIC50 at hNav1.7 [1] (read-out: Nav1.7 Use IC50) is 8.00.
